The source of these data is article PMC7274078, “Brain Endothelial Cells Regulate Glucagon-Like Peptide 1 Entry Into the Brain via a Receptor-Mediated Process” (Frontiers in Physiology, 2020).

Usually half-life stands for the time in which the quantity being followed falls by half.

One data set relates to protein kinase A (PKA). In words: PKA activity in brain regions and cerebral microvessels after GLP-1 infusion. It counts as in vivo, rat. As to the method: Each rat received a systemic infusion of either saline or GLP-1 (Abcam, Cambridge, United Kingdom) (30 pmol/kg/min) via the jugular vein catheter for 10 min. Plasma samples were then collected and rats sacrificed via anesthetic overdose. Cerebral spinal fluid (CSF) and various brain regions (cerebellum, cortex, hippocampus, hypothalamus, and brain stem) were collected for further assays. Cerebral microvessels were isolated as described ([Austin et al., 2010]). Briefly, brain tissue was disrupted with a razor blade followed by passing through an 18G needle. Vessel fragments were harvested using dextran-gradient centrifugation, then collected on a 20 μm pore filter, washed to remove cell debris, and reconstituted in buffer. This was followed by passing through a 100 μm pore size filter. Brain vessels that can pass through the 100 μm filter were considered as cerebral microvessel and used for protein kinase A (PKA) activity assay. […]
(§1) All plasma and CSF samples collected during the study were frozen immediately and stored at −80°C until further analysis of GLP-1 concentration using a total GLP-1 ELISA kit (Merck Millipore, Billerica, MA, United States) ([Knezovic et al., 2018]). To measure PKA activity in brain tissue, cerebral microvessels, or cultured cells, samples were homogenized and lysed in PKA lysis buffer and activity determined using a Pep Tag® non-radioactive protein kinase assay kit (Promega, Madison, WI, United States) ([Christian et al., 2011]). […]
FIGURE 2 GLP-1 infusion increases PKA activity in various brain regions in both normal and vagotomized rats. […] PKA activities in various brain regions were determined in normal rats (A,B) and vagotomized rats (D,E). […] (B,E), Quantitative analysis (B, n = 7; *p < 0.05 vs. saline infusion, Student’s t test) (E, n = 6; *p < 0.05 vs. saline infusion, Student’s t test).
(§2) Each rat received a systemic infusion of either saline or GLP-1 (30 pmol/kg/min) for 10 min, GLP-1 concentrations in CSF and plasma were determined and cerebral microvessels were isolated. […] (D) Quantitative analysis of PKA activity (n = 6, *p < 0.05, Student’s t test).

A short description of data set [1]: GLP-1 concentrations in plasma and CSF (total GLP-1 ELISA). Format: in vivo. Particulars: rat, systemic infusion 30 pmol/kg/min for 10 min, n = 4. On the procedure: Each rat received a systemic infusion of either saline or GLP-1 (Abcam, Cambridge, United Kingdom) (30 pmol/kg/min) via the jugular vein catheter for 10 min. Plasma samples were then collected and rats sacrificed via anesthetic overdose. Cerebral spinal fluid (CSF) and various brain regions (cerebellum, cortex, hippocampus, hypothalamus, and brain stem) were collected for further assays. Cerebral microvessels were isolated as described ([Austin et al., 2010]). Briefly, brain tissue was disrupted with a razor blade followed by passing through an 18G needle. […]
as §1, §2
A general note: An ELISA detects its analyte on a solid surface through an enzyme-linked reagent.

Data set [2] in a line: Microvascular perfusion in hippocampus and skeletal muscle (contrast-enhanced ultrasound), with blood glucose and MAP. It counts as in vivo. Particulars: rat. As to the method: After a 30–45 min baseline period to ensure hemodynamic stability and a stable level of anesthesia, baseline microvascular blood volume (MBV) and microvascular flow velocity (MFV), in the hippocampus and skeletal muscle were determined using contrast-enhanced ultrasound (CEU), as described previously ([Chai et al., 2010]; [Fu et al., 2013], [2017]). In brief, microbubbles (Definity; Lantheus Medical Imaging) were diluted with normal saline (1:10 vol:vol) and infused intravenously at a rate of 0.8 mL/h. Once the systemic microbubble concentrations reached steady state (∼6 min), high-power pulse-inversion ultrasound (HDI-5000; Philips Ultrasound) was used to image the microbubble signals in the hippocampus and the proximal adductor muscle group (adductor magnus and semimembranosus). Intermittent imaging was performed at pulsing intervals ranging from 0.5 to 10 s. At least three images were acquired at each pulsing interval, and the images obtained at 0.5 s were used as background. Pulsing interval vs. background-subtracted video intensity was fitted to the function y = A (1 − e^−βt, with y being video intensity at pulsing interval t. A as the plateau video intensity measures MBV and β represents the rate of microvascular filling (i.e., MFV). Microvascular blood flow (MBF) was calculated by multiplying MBV and MFV. All CEU images were analyzed using the QLAB software (Philips Medical Systems, Andover, MA, United States).
After the baseline hippocampal and muscle microvascular parameters were obtained, rats then received a continuous intravenous infusion of either saline or GLP-1 (30 pmol/kg/min) for 120 min. Hippocampal microvascular parameters (MBV, MFV, and MBF) were again determined every 30 min and muscle microvascular parameters at 120 min using CEU. Throughout the study, mean arterial blood pressure (MAP) was monitored via a sensor connected to the carotid catheter (Harvard Apparatus, Holliston, MA, United States, and AD Instruments, Inc., Colorado Springs, CO, United States). Inactin was infused at a variable rate to maintain steady levels of anesthesia and blood pressure throughout the study. Carotid arterial blood glucose concentrations were determined every 30 min using a Contour Next glucometer (BAYER). At the end of each study the rat was euthanized by an overdose of inactin.
FIGURE 8 GLP-1 infusion increases muscle but not […] microvascular perfusion. Each rat received a systemic infusion of saline or GLP-1 at 30 pmol/kg/min for 120 min and MBV, MFV and MBF were determined using contrast-enhanced ultrasound in both […] (A,B,C) and muscle (D,E,F) (n = 6, *p < 0.05, vs. control, Student’s t test).

Another data set deals with DPP4. The conditions noted are these: plasma, degradation by DPP4; no reference given; cited from earlier work. An excerpt: GLP-1 receptors are expressed in multiple brain areas in rodents, primates, and humans and they are involved in learning, neuroprotection and regulation of appetite and satiety ([Wei and Mojsov, 1995]; [During et al., 2003]; [Richards et al., 2014]). Global knockout of the GLP-1 receptor in mice impairs synaptic plasticity and memory formation ([Abbas et al., 2009]). […] Indeed, pre-treatment of animals w ...

Where [3] appears, read: 30 pmol/kg/min i.v. for 120 min, contrast-enhanced ultrasound, n = 6.
Where [4] appears, read: 30 pmol/kg/min i.v. for 120 min, n = 6.
[5] abbreviates: 30 pmol/kg/min i.v., at 120 min, contrast-enhanced ultrasound, n = 6, p < 0.05.

As for Glucagon-like peptide 1 [GLP-1], the “PKA activity in brain microvessels” value in the data set on protein kinase A (PKA) (isolated cerebral microvessels, rat, GLP-1 30 pmol/kg/min for 10 min, n = 6, p < 0.05) is given as “acutely increased”. Besides, in the data set on protein kinase A (PKA) (normal rats, GLP-1 30 pmol/kg/min infusion for 10 min vs saline, n = 7, p < 0.05), the “PKA activities in all brain regions” value is “significantly increased”. Also, the “PKA activity in various brain regions” value in the data set on protein kinase A (PKA) (sham-operated and sub-diaphragmatic vagotomized rats, GLP-1 30 pmol/kg/min for 10 min, n = 6) was “rapid and robust increase”. Also, in data set [1], the “levels of GLP-1 in CSF” value is listed as “remained undetectable” and the “plasma GLP-1 concentrations” value is given as “markedly increased”. For the same substance, in data set [2] (setting [3]), the “hippocampal MBF” value is given as “did not alter”, the “hippocampal MBV” value is “did not alter” and the “hippocampal MFV” value was “did not alter”. For the same substance, in data set [2] (setting [4]), the “Blood glucose during the study” value is given as “remained stable” and the “MAP during the study” value is “remained stable”. The MFV in muscle result in data set [2] (30 pmol/kg/min i.v., at 120 min, contrast-enhanced ultrasound, n = 6) is reported as “without affecting”. Moreover, in data set [2] (setting [5]), the MBF in muscle result was “markedly increase” and the MBV in muscle entry is given as “markedly increase”. The half-life with DPP4 was around 2 min.
